Peptide text beside a SMILES is read from it. * marks the point of attachment. Cbz = O=C(OCc1ccccc1)*

The test system of experiment [1] is NR4A3. As to the kind of experiment: NR4A3 protein expression under OGD-R, HUVEC (Western blot, immunofluorescence). Type of experiment: cell-based, human. The settings on record: for degradation of NR4A3 during restoration injury: given together with CHX 100 μM, MG132 10, 30, 100 nM, CQ 10, 30, 100 μM. As to the method: (§1) HUVEC cells were cultured in modified DMEM medium containing 10% fetal bovine serum. When the cells reached about 80% confluence, the cells were digested with 0.25% trypsin, and then pipetted evenly with modified DMEM containing 10% […]. The cell concentration was adjusted to 1×10^5 cells/mL, and the cells were seeded at 400 uL/well in a 24-well plate, and the experiment was carried out when the cells grew to about 70% confluence. RAOEC cells were cultured in high-glucose DMEM medium containing 10% fetal bovine serum, and the seeding conditions were the same as those of HUVEC. During the OGD-R injury treatment, the hypoxia workstation was set to have an oxygen concentration of 1% (1% O2, 5% CO2, 94% N2), a temperature of 37° C., and a humidity of 85%. A sugar-free DMEM medium was placed in the hypoxia workstation for pre-hypoxia for 3 hours. The medium in the culture plate was aspirated, and the plate was washed twice with preheated sugar-free DMEM medium, and 100 uL of sugar-free DMEM medium was added to each well. The culture plate was placed in the hypoxia workstation, and 300 uL of pre-hypoxic sugar-free DMEM medium was added to each well, and then the culture plate was placed in the hypoxia workstation for additional hypoxia for 4 hours. Restoration was then performed. The culture plate was taken out, and the sugar-free DMEM medium was replaced with 400 uL of normal medium containing 10% fetal bovine serum, and then the plate was placed in a 37° C. 5% CO2 cell incubator for culturing for 24 hours or a specified time period. For the cells in the normal group, it was only replaced with 400 uL of new normal medium containing 10% fetal bovine serum. […]
(§2) The cells were washed twice with pre-cooled PBS, then scraped off with a cell scraper and transferred to a 1.5 mL centrifuge tube, and centrifugation was performed at 4° C. and 1000 g for 5 minutes. […] Each protein sample was then quantified using the BCA protein quantification kit. After protein quantification, protein lysis buffer was used to adjust the protein concentration of each sample to be consistent with the protein sample with the lowest concentration, and then each protein sample was sufficiently mixed with 5× protein loading buffer at a ratio of 4:1. […]
(In general: Immunoblotting shows a protein as a band on a membrane.)

Experiment [2] has as its system NR4A3. Briefly: NR4A3 protein expression under OGD-R, RAOEC (Western blot, immunofluorescence). It counts as cell-based, rat. Particulars: for degradation of NR4A3 during restoration injury: given together with CHX 100 μM, MG132 10, 30, 100 nM, CQ 10, 30, 100 μM. As to the method: as §1, §2
For experiment [3], the system named is human alveolar epithelial A549 cells. The settings on record: A549 cells in vitro; cited from earlier work.
The next experiment relates to PFKFB3. The settings on record: mouse model of LPS-induced pulmonary fibrosis; cited from earlier work.
In experiment [4] the test system is NR4A3. Briefly: NR4A3 ubiquitination after OGD-R in vascular endothelial cells (immunoprecipitation with anti-ubiquitin antibodies). It counts as cell-based. The settings on record: YC-6 10 μM; MG132 100 nM; given at restoration. As to the method:
as §1
The cells were washed twice with pre-cooled PBS, then scraped off with a cell scraper and transferred to a 1.5 mL centrifuge tube, and centrifugation was performed at 4° C. and 1000 g for 5 minutes. […] Each protein sample was then quantified using the BCA protein quantification kit. After protein quantification, IP lysis buffer was used to adjust the protein concentration of each sample to 1 mg/mL. […]

[5] abbreviates: 100 μM given during restoration after OGD.

As for `C[C@@H]1C[C@@H]([C@H](O)CC2CC(=O)NC(=O)C2)C(=O)[C@@H](C)C1` [CHX, Cycloheximide], the “NR4A3 protein level during restoration” value in the experiment on NR4A3 [1] (setting [5]) and in the experiment with NR4A3 [2] (setting [5]) was “almost complete depletion of NR4A3 protein” each time.

In the case of `O=C(/C=C/c1cccnc1)c1ccncc1` [3PO], in experiment [3], the “LPS-induced apoptosis, inflammatory cytokine production, enhanced glycolytic flux and increased ROS” value is given as “reversed”. In addition, the “upregulation of PFKFB3 expression and enhanced aerobic glycolysis” value in the experiment on PFKFB3 is “could reverse the significant upregulation of PFKFB3 expression and enhanced aerobic glycolysis”.

On to `CC(C)C[C@@H](C=O)NC(=O)[C@H](CC(C)C)NC(=O)[C@H](CC(C)C)NC(=O)OCc1ccccc1` [MG132] (Cbz-Leu-Leu-Leu-aldehyde), for which the “degradation of NR4A3 during restoration injury” value in the experiment with NR4A3 [1] and in the experiment on NR4A3 [2] was “could inhibit the degradation of NR4A3” throughout. The “ubiquitination modification of NR4A3 induced by restoration” value in the experiment with NR4A3 [4] is listed as “increase of ubiquitinated NR4A3”.

Turning to `CCN(CC)CCCC(C)Nc1ccnc2cc(Cl)ccc12` (stereo not drawn) [CQ, Chloroquine], the “degradation of NR4A3 during restoration injury” value in the experiment on NR4A3 [1] and in the experiment on NR4A3 [2] was “did not significantly inhibit the degradation of NR4A3” in each case.

Source of the values: patent publication US12594282B2, “Use of small molecule compounds in the treatment of diseases mediated by lung epithelial cell injury and/or vascular endothelial cell injury” (Guangzhou Cellprotek Pharmaceutical Co., Ltd., priority 2020, dated 2026).
